Here are results for one compound from EP0349061B1, “Immunosuppressant agent” (Merck & Co., Inc., priority 1988, dated 1990).

Molecules are shown by their SMILES. Read-outs that look alike come from different tables or passages of the source.

In general, inhibition refers to the relative decrease from the control value, in per cent.

The experiment concerns mouse T lymphocytes. In words: T-cell proliferation assay (ionomycin plus PMA induced T-cell stimulation, tritiated thymidine uptake). The format is cell-based, C57B1/6 mice. Particulars: for IC50: read-out: IC₅₀, inhibition of T-cell proliferation. How it is done:
The principle of this assay is to measure the proliferation of mouse T lymphocytes stimulated with the combination of ionomycin plus PMA. A positive sample in this assay will inhibit T-cell proliferation, as indicated by reduced tritiated thymidine uptake.
Purified demethimmunomycin, as prepared by HPLC above, was dissolved in absolute ethanol at 1 mg/ml.
Spleens from C57B1/6 mice were taken under sterile conditions and gently dissociated in ice-cold RPMI 1640 culture medium (GIBCO, Grand Island, N.Y.) supplemented with 10% heat-inactivated fetal calf serum (GIBCO). Cells were pelleted by centrifugation at 1500 rpm for 8 minutes. Contaminating red cells were removed by treating the pellet with ammonium chloride lysing buffer (GIBCO) for 2 minutes at 4°C. Cold medium was added and cells were again centrifuged at 1500 rpm for 8 minutes. T lymphocytes were then isolated by separation of the cell suspension on nylon wool columns as follows: Nylon wool columns were prepared by packing approximately 4 grams of washed and dried nylon wool into 20 ml plastic syringes. The columns were sterilized by autoclaving at 250°F [120°C] for 30 minutes. Nylon wool columns were wetted with warm (37°C) culture medium and rinsed with the same medium. Washed spleen cells resuspended in warm medium were slowly applied to the nylon wool. The columns were then incubated in an upright position at 37°C for 1 hour. Non-adherent T lymphocytes were eluted from the columns with warm culture medium and the cell suspensions were spun as above.
Purified T lymphocytes were resuspended at 2.5 x 10⁵ cells/ml in complete culture medium composed of RPMI 1640 medium with 10% heat-inactivated fetal calf serum, […] glutamine, 1 mM sodium pyruvate, 2 x 10⁻⁵ M 2-mercaptoethanol and 50 »g/ml gentamycin. Ionomycin was added at 250 ng/ml and PMA at 10 ng/ml. The cell suspension was immediately distributed into 96 well flat-bottom microculture plates (Costar)(registered trade mark) at 200 »l/well. The control, being the medium without test drug, and various below-indicated dilutions of the sample (above-described purified demethimmunomycin) to be tested were then added in triplicate wells at 20 »l/well. L-679,934 was used as a standard. The culture plates were then incubated at 37°C in a humidified atmosphere of 5% CO₂-95% air for 44 hours. The proliferation of T lymphocytes was assessed by measurement of tritiated thymidine incorporation. After 44 hours of culturing, the cells were pulse-labelled with 2 »Ci/well of tritiated thymidine (NEN, Cambridge, MA). After another 4 hours of incubation, cultures were harvested on glass fiber filters using a multiple sample harvester. Radioactivity of filter discs corresponding to individual wells was measured by standard liquid scintillation counting methods (Betacounter). Mean counts per minute of replicate wells were calculated and the results expressed as percent inhibition of tritiated thymidine uptake (proliferation) as follows: [formula]
• 1. Mouse T cell cultures were pulsed with ³H-thymidine for 4 hours prior to harvesting at 48 hours. • 2. […] IC₅₀ = 1.4 ng/ml = 1.81 nM, for demethimmunomycin, (L-638,742), and generally in the range of 1.6 to 1.9 x 10⁻⁹ molar. • 4. Inhibition of T-cell proliferation by demethimmunomycin was reversed by the addition of 50»/ml of IL-2 (recombinant IL-2) at the initiation of culture.

[1] abbreviates: Mus musculus, T-lymphocyte, 48 h.

As to `CC[C@@H]1/C=C(\C)C[C@H](C)C[C@H](OC)[C@H]2O[C@@](O)(C(=O)C(=O)N3CCCC[C@H]3C(=O)O[C@H](/C(C)=C/[C@@H]3CC[C@@H](O)[C@H](O)C3)[C@H](C)[C@@H](O)CC1=O)[C@H](C)C[C@@H]2OC` [demethimmunomycin, 31-desmethoxy-31-hydroxy-L-683,590], under setting [1], the inhibition at 0.0006 µg/mL amounted to 0%, the inhibition at 0.0009 µg/mL was 9%, the inhibition at 0.0013 µg/mL stood at 38.2% and the inhibition at 0.0019 µg/mL was 72.1%. Further, under setting [1], the inhibition at 0.0029 µg/mL is 86.3%, the inhibition at 0.0044 µg/mL is 91.9% and the inhibition at 0.0066 µg/mL is 97.9%. For the same compound, under “Mus musculus, T-lymphocyte”, the IC50 worked out at 1.4 ng/mL. The IC50 (Mus musculus, T-lymphocyte, range generally found) lay in the range of 1.6 to 1.9 nM. Moreover, the IC50 (Mus musculus, T-lymphocyte, same value as 1.4 ng/ml, given in molar terms) worked out at 1.81 nM. The “Inhibition of T-cell proliferation on addition of IL-2” value (addition of recombinant IL-2 at the initiation of culture) is listed as “reversed”.
